From patent US11850313B2, “Method and compositions for protecting tissue” (The London Health Sciences Centre Research Inc., priority 2019, dated 2023)

Experiments:
DCD porcine kidneys [1] = test: Ex vivo subnormothermic perfusion of DCD porcine kidneys with Hemopure® at 21° C. followed by blood-free reperfusion at 37° C.; design: species or system Pigs; details: for tissue oxygenation during preservation: 21° C., vs SCS (FIG. 4A); for urine output during preservation: 4 h perfusion at 21° C., vs Hemopure® alone (FIG. 3A)
Excerpt: Pigs weighing 55-65 kg were used for this study. The animals were maintained in accordance with the Committee on the Care and Use of Laboratory Animals appointed by the National Research Council. The animals were housed at the animal facility in the West Valley Building, which is managed by the Animal Care and Veterinary Services Department at The University of Western Ontario. The experimental protocol and housing conditions followed the guidelines of the university's Animal Care Committee and the Canadian Council on Animal Care.
(§1) Pigs were tranquilized prior to transport to the Canadian Surgical Technologies & Advanced Robotics facility (CSTAR, University Hospital, London, Canada). Upon arrival at CSTAR, the animals were prepared for surgery as per SOP. A midline incision was used to expose the kidneys. The right and left kidneys with their ureters were dissected free from the retro peritoneum while leaving the blood supply to the ureter intact and then the ureter was divided. The renal vascular pedicles were left as long as possible by freeing the renal artery and vein up to the aorta and vena cava. The pedicles were clamped for 30 minutes to induce warm ischemia in the donor organs following intravenous infusion of 10000 units of heparin. The injury inflicted is likely greater than that of conventional DCD kidneys after withdrawal of life support as the blood supply is cutoff completely by clamping, which is more harmful than the gradual ischemic injury that occurs during cardiac death. Subsequently, nephrectomies of the left and right kidney were performed and the donor animal was euthanized. All the surgeries were performed by transplant fellows at University Hospital, London, Ontario, Canada.
The kidneys were randomly assigned to one of five preservation treatments. The first group of kidneys were flushed with and stored in HTK solution on ice for 4 h (SCS), which reflects the current clinical standard of care for organ preservation. The second group of kidneys were flushed with HTK solution and treated to 4 h of subnormothermic perfusion at 21° C. with Hemopure®. The third group of kidneys were flushed with HTK solution supplemented with 200 nM AP39 and treated to 4 h of subnormothermic perfusion at 21° C. with Hemopure® supplemented with 200 nM AP39. The fourth group of kidneys were flushed with HTK solution supplemented with 1 μM AP39 and treated to 4 h of subnormothermic perfusion at 21° C. with Hemopure® supplemented with 1 μM AP39. The fifth group of kidneys were flushed with HTK solution supplemented with 150 μM STS and treated to 4 h of subnormothermic perfusion at 21° C. with Hemopure® supplemented with 150 μM STS. After the 4 h preservation period, all kidneys were perfused with Hemopure® for 4 h at 37° C. with nutrients to simulate reperfusion after renal transplantation. The kidneys were perfused using an ex vivo perfusion apparatus (FIG. 4). The perfusion pressure was maintained at 50 mmHg. Hemopure® samples were analyzed hourly. The perfusate was oxygenated using an external mixed air supply (35% O2, 2 L/min). After reperfusion with stressed blood, kidneys were bivalved sagittally. One half was stored at −80° C. for mechanistic analyses and the other half was stored in formalin for histopathological analyses.
Hemopure® and urine samples were collected hourly during the 4 h preservation perfusion and during the 4 h reperfusion to evaluate graft function over time. Electrolyte levels, lactate levels and gas levels in the perfusate were measured hourly using the iSTAT point-of-care testing system. Hourly urine output was recorded, and total urine samples were also collected from both perfusion periods. Pictures of the kidney, urine bags and flow and pressure readings were taken hourly. Tissue oxygenation was also measured hourly. During both perfusion periods, we closely monitored pump parameters (flow and pressure) to ensure optimal graft function. […]

DCD porcine kidneys [2] = test: Ex vivo perfusion of DCD porcine kidneys with autologous blood (SMP/NMP), then reperfusion with stressed blood at 37° C.; design: species or system Pigs
Description: as §1, with “3000” for “10000”, “All the surgeries were performed by transplant fellows at University Hospital, London, Ontario, Canada.” left out
The kidneys were randomly assigned to one of four preservation treatments. […] Blood, urine and tissue samples were collected and analyzed as described in the next subsection.
Blood and urine samples were collected hourly during the 4 h preservation perfusion with non-stressed blood and during the 4 h reperfusion with stressed blood to evaluate graft function over time. Hourly urine output was recorded, and total urine samples were also collected from both perfusion periods. Pictures of the kidney, urine bags and blood flow and pressure readings were taken hourly. […] During the perfusion periods, we closely monitored pump parameters (flow and pressure) to ensure optimal graft function. […] The total TUNEL+ area (%) was quantified for 10 random fields of view for 2 kidney samples per treatment group using ImageJ software v 1.50 (National Institutes of Health, USA). The total tubular area and TUNEL+ tubular area, used to calculate the TUNEL+ area (%), were determined by adjusting the brightness and saturation thresholds. […]

donor kidneys = test: Static cold storage (4° C.) of donor kidneys in UW solution supplemented with AP39; details: AP39 added to UW / cold preservation solution, applicant's earlier work
[3] = tested on: oxidatively stressed endothelial cells; details: including protection against oxidative mitochondrial DNA damage; cited from earlier work
kidney = details: AP39 supplementation of UW solution, 21° C.; cited from earlier work
[4] = 500 ppm; cited from earlier work

O=C(CCCCCCCCC[P+](c1ccccc1)(c1ccccc1)c1ccccc1)Oc1ccc(-c2cc(=S)ss2)cc1.[Br-] [AP39]
tissue oxygenation during preservation (DCD porcine kidneys [1]; 200 nM AP39 in Hemopure®): higher tissue oxygenation than SCS
urine output during preservation (DCD porcine kidneys [1]; 200 nM AP39 in Hemopure®): significantly higher
apoptotic tissue injury (TUNEL score) (DCD porcine kidneys [1]; 200 nM AP39 in Hemopure®, after reperfusion, vs Hemopure® and Hemopure®+1 μM AP39 (FIGS. 6A-6F)): reduced apoptotic tissue injury
urine output during preservation (DCD porcine kidneys [1]; 1 μM AP39 in Hemopure®): significantly higher
urine output during reperfusion (DCD porcine kidneys [1]; preserved with 200 nM AP39 in Hemopure® at 21° C., 4 h reperfusion at 37° C., vs Hemopure® kidneys (FIG. 3B)): significantly higher
urine output during 4 h of preservation (DCD porcine kidneys [2]; 200 nM AP39 in non-stressed blood at 21° C. (SMP-AP39-21C), vs SMP-21C and NMP-37C (FIG. 9A)): significantly higher
graft function (DCD porcine kidneys [2]; AP39-supplemented blood at 21° C., vs cold storage in UW and perfusion with only blood at 21° C. and 37° C.): improves graft function
urine output during 4 h of reperfusion with stressed blood (DCD porcine kidneys [2]; preserved with SMP-AP39-21C, vs SCS-4C, SMP-21C, NMP-37C (FIG. 9B)): significantly higher
graft outcomes (donor kidneys): improves renal graft outcomes
protective effect under oxidative stress conditions [3]: cryoprotective effect
kidney preservation (kidney): improves kidney preservation

S [H2S, Hydrogen sulfide]
effect of exposure to extreme levels [4]: sudden collapse and unconsciousness

O.O.O.O.O.O=S([O-])([O-])=S.[Na+].[Na+] [STS, sodium thiosulfate (STS) pentahydrate]
tissue oxygenation during preservation (DCD porcine kidneys [1]; 150 μM STS in Hemopure®): higher tissue oxygenation than SCS
urine output during preservation (DCD porcine kidneys [1]; 150 μM STS in Hemopure®): significantly higher
